This assay deals with T1, Ileal sodium/bile acid cotransporter (Homo sapiens, UniProt Q12908).
T1 sequence (Q12908 whole entry): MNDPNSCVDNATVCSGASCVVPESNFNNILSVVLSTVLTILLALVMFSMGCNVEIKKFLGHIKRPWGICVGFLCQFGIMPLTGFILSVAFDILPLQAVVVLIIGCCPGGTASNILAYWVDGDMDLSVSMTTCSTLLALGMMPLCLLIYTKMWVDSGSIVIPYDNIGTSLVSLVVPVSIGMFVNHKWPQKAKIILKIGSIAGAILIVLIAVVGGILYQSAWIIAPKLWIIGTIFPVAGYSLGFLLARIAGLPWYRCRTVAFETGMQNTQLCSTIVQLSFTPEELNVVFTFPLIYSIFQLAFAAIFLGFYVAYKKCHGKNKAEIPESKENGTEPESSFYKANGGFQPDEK
The experiment in a line: Inhibition Assay: On the day of the uptake experiment, 10 mM HEPES was added to Hank's Balanced Salt Solution, and the pH was adjusted to 7.4 with TRIS (HBSSH). The assay buffer was prepared by adding 100 uM [3H]-taurocholate and 10 uM cold taurocholate to room temperature HBSSH. A separate washing buffer was prepared by adding 10 uM cold taurocholate to HBSSH (30 ml per assay plate) and placed on ice. Using 100% DMSO, 8 point, 3-fold dilution curves for each test compound was prepared starting at 200 uM. Similarly, an 8 point dose response curve was prepared of the control compound [(3R,5R)-3-butyl-3-ethyl-7,8-bis(methyloxy)-5-phenyl-2,3,4,5-tetrahydro-1,4-benzothiazepine 1,1-dioxide (Brieaddy, L. E. WO9605188, 1996)] starting at 1.8 mM. Drug plates were created by adding 3 uL of each concentration to a v-bottom 96-well plate then diluted 60-fold with 177 uL of assay buffer. Plates were removed from the incubator and allowed to cool to ambient temperature.

For the compound `CCCC[C@]1(CC)CS(=O)(=O)c2cc(CN[C@@H](CCS(C)(=O)=O)C(=O)O)c(OC)cc2[C@@H](c2ccccc2)N1`, the half-inhibitory concentration (IC50) is 13 nM.

Source of the values: ChEMBL document CHEMBL3638854, “Chemical compounds” (2015).
